Results: patent US4405609A, “Combination and method for increasing feed utilization efficiency in ruminants” (Eli Lilly and Company, priority 1982, dated 1983)

Key:
[1] = tested on: Hereford crossbred steers; assay: 140-day narasin/actaplanin feed study; type: in vivo
From the text: Another study was designed to show the unexpected interaction of the polyether narasin in combination with actaplanin. Two hundred forty Hereford crossbred steers averaging about 700 pounds and about 18 months of age were employed. The animals were fed corn silage and high moisture corn, plus two pounds per head per day of the following cattle supplement:
The treatments comprised three dose levels of narasin (0, 4 and 12 g./T.) and four dose levels of actaplanin (0, 10, 20 and 40 g./T.). The animals were randomly assigned to four blocks of twelve partially sheltered pens, each with five animals per pen. The treatments were allotted at random within the four 12-pen blocks such that each treatment was represented in each block. Each of the twelve treatments was replicated four times.

[2] = dose giving largest increase in propionate production
From the text: The compositions provided herein comprise a polyether as defined above and a glycopeptide as defined above. The respective components will be present on a weight basis in a ratio of about 1 to about 10 parts polyether together with about 1 to about 10 parts glycopeptide. For example, a polyether such as narasin will be employed at a concentration level of about 1 to about 20 grams per ton of ruminant feedstuff, together with a glycopeptide such as avoparcin or actaplanin at a concentration level of about 5 to about 50 grams per ton of ruminant feedstuff. A particularly preferred embodiment of the invention is a combination of narasin at about 2 to about 10 grams per ton of feedstuff, and actaplanin at about 5 to about 20 grams per ton. […] Typically, the maximal doses of each component to be employed in accordance with the present invention are substantially the same as the maximal doses for effective growth promotion and feed utilization enhancement by the individual components. […] Similarly, actaplanin at a dose of about 30 grams per ton of feed effects the largest increase in propionate production observed with that agent. […]

feeder calves = assay: in vivo evaluation of monensin and actaplanin in feeder calves on high-grain ration; conditions: 30 grams per ton of each agent in feed
From the text: For example, in a typical in vivo evaluation of the combination of monensin and actaplanin, feeder calves were fed a high-grain ration such as that recited above. Fifteen control animals received the feed ration with no feed efficiency enhancer additive. Another group of fifteen calves received the feed ration containing monensin at 30 grams per ton, while a third group of fifteen animals received the feed ration with actaplanin at 30 grams per ton. A combination of 30 grams per ton of monensin and 30 grams per ton of actaplanin was administered as a feed additive to the ration consumed by a fourth group of fifteen test animals. […] The feed efficiency of such control group, calculated as the pounds of feed consumption required for one pound of animal weight gain, was 13.49.

[3] = tested on: Hereford crossbred steers; assay: 140-day monensin/actaplanin feed study, corn silage diet; type: in vivo
Experimental: The animals were divided into a control group and into eleven test groups. All animals were fed a corn silage diet ad libitum once daily throughout the 140-day study, plus two pounds per head per day of the following cattle supplement:
Test compounds were formulated as a premix with 50 percent by weight of ground corn cobs and 48 percent by weight of ground corn. The premixes were added to the corn silage feed rations in amounts necessary to provide the desired doses of active ingredients to the test animals. The data are presented as the average for the entire group of animals receiving a particular dose of active agent.
In the foregoing table, the Feed Efficiency value is calculated by dividing the average amount of feed consumed (pounds of dry matter intake) by the average daily gain in weight (in pounds). Ideally, the animals will gain more weight on less feed intake. Accordingly, the most improvement in feed utilization efficiency is represented by smaller numbers. […] The optimum in this experiment was 10 g./T. of monensin and 40 g./T. of actaplanin which produced a 13.5% improvement in feed efficiency over untreated controls.

steers [4] = assay: further analysis of feed efficiency data: expected versus observed change; type: in vivo
From the text: When the components are utilized in amounts that are about their respective optimal dose levels when used alone, the combination causes an unexpected increase in feed utilization efficiency, which is believed the result of continued unexpected interaction. The results of this further analysis of data is presented below:
In the foregoing table, Δ is the change in feed efficiency of the treated group over the nontreated group. […] The change in efficiency is thus 0.14. The term "EΔ" is the change in efficiency expected with a combination, and is arrived at by adding the Δ values of the individual components at the appropriate dose levels. The term "OΔ" is the change in efficiency over nontreated controls actually observed with animals receiving the combination.

rumen fluid = assay: in vitro rumen fluid fermentor assay of propionate production; type: cell-based, steers; conditions: ± SD
From the text: Rumen fluid was obtained from steers which had surgically-installed fistula openings into the rumen. The steers were maintained on a high-grain ration such as the one described above.
A sample of rumen fluid was strained through four layers of cheese cloth and the eluate was collected in vacuum bottles. The particulate matter retained by the cheese cloth was resuspended in enough physiological buffer to return it to the original volume of the rumen fluid, and the eluate was strained again. The buffer utilized is described by Cheng et al., J. Dairy Sci., 38, 1225 (1955).
The two eluates were combined in a separatory funnel and allowed to stand until any remaining particulate matter separated to the top. The clear liquid layer then was removed, diluted with an equal volume of the above-mentioned buffer, and the pH of the solution was adjusted to 7.0.
Fermenter flasks were then changed with the rumen liquor thus prepared. Two fermentor flasks were used per each treatment group. The fermentor flasks were allowed to stand for four days for equilibration, and then measurements of proprionate production were made daily for six days in order to establish a control. Measurements were made by gas chromatographic methods. The fermenter flasks were then fed 20 grams per day of a finely ground ration composed of 20 percent high concentrate ration and 80 percent alfalfa hay. The individual feed efficiency enhancers, and the composition of such enhancers provided by this invention, were added to the feed and dried thereon prior to introduction of the feed ration into the fermentor flasks. The feed ration was introduced into the flasks approximately two times each day. After the initial administration of active ingredient, two days were allowed for reequilibration, and then the volatile fatty acid (VFA) production in each flask was monitored by gas chromatography for five days.

steers [5] = assay: combined data of the three steer studies, percentage response versus untreated controls; type: in vivo
From the text: The following figures report such data expressed as a percentage response when compared with untreated control animals.

ruminants = conditions: Raun et al., J. Ani. Sci. 43, 670 (1976); cited from earlier work
[6] = tested on: Hereford crossbred steers; assay: 154-day trial of monensin (30 g./T.) with actaplanin; type: in vivo
From the text: In another study, two hundred Hereford crossbred steers averaging about 565 pounds were employed in a 154-day trial to determine the efficacy of combinations of monensin (at 30 g./T.) and actaplanin (at 20 g./T., 40 g./T. and 60 g./T.). The steers were fed a corn silage or corn-soya-cob roughage diet ad libitum once a day, together with a cattle supplement. The animals were divided into five treatment groups of forty steers each. These treatment groups were maintained in open pens; five animals per pen so that each treatment group comprised eight pens. Individual treatments were then assigned at random to each of the eight pens so that each treatment was replicated […] within each ration group.

[7] = monensin 0, actaplanin 10 grams/Ton
[8] = monensin 0, actaplanin 20 grams/Ton
[9] = monensin 0, actaplanin 40 grams/Ton
[10] = polyether 0, actaplanin 10 g./T.
[11] = polyether 0, actaplanin 20 g./T.
[12] = polyether 0, actaplanin 40 g./T.
[13] = monensin 10, actaplanin 0 grams/Ton
[14] = monensin 30, actaplanin 0 grams/Ton

Question: Which “Average Daily Dry Matter Intake” value ([1]; narasin 4, actaplanin 0 g./T.) does the source give for CC[C@@H](C(=O)O)[C@@H]1O[C@@H]([C@@H](C)[C@H](O)[C@H](C)C(=O)[C@H](CC)[C@H]2O[C@]3(C=C[C@@H](O)[C@]4(CC[C@@](C)([C@H]5CC[C@](O)(CC)[C@H](C)O5)O4)O3)[C@H](C)C[C@@H]2C)[C@@H](C)C[C@@H]1C [narasin] here?
Answer: 16.41 Pounds

Question: What about the “Average Daily Weight Gain” value ([1]; narasin 4, actaplanin 0 g./T.) of the same compound?
Answer: 2.53 Pounds

Question: And the “Average Feed Efficiency” value ([1]; narasin 4, actaplanin 0 g./T.)?
Answer: 6.46

Question: And the “Average Daily Dry Matter Intake” value ([1]; narasin 12, actaplanin 0 g./T.)?
Answer: 15.52 Pounds

Question: What about the “Average Daily Weight Gain” value ([1]; narasin 12, actaplanin 0 g./T.) of the same compound?
Answer: 2.52 Pounds

Question: And the “Average Feed Efficiency” value ([1]; narasin 12, actaplanin 0 g./T.)?
Answer: 6.18

Question: What about the “decrease in feed intake versus untreated controls” value ([1]; narasin alone at 12 g./T.) of the same compound?
Answer: 7.2%

Question: What does the source list for actaplanin?
Answer: dose that effects the largest increase in propionate production observed with that agent [2]: about 30 grams per ton of feed; Average Daily Weight Gain (feeder calves): 1.38 pounds; feed efficiency (pounds of feed consumption required for one pound of animal weight gain) (feeder calves): 12.36; Average Daily Dry Matter Intake [3, 7]: 12.86 lbs; Average Daily Dry Matter Intake % change from control [3, 7]: +4.1%; Average Daily Weight Gain [3, 7]: 2.44 lbs; Average Daily Weight Gain % change over control [3, 7]: +9.4%; Feed Efficiency [3, 7]: 5.28; Feed Efficiency % change from control [3, 7]: -4.9%; Average Daily Dry Matter Intake [3, 8]: 12.86 lbs; Average Daily Dry Matter Intake % change from control [3, 8]: +4.1%; Average Daily Weight Gain [3, 8]: 2.37 lbs; Average Daily Weight Gain % change over control [3, 8]: +6.3%; Feed Efficiency [3, 8]: 5.43; Feed Efficiency % change from control [3, 8]: -2.0%; Average Daily Dry Matter Intake [3, 9]: 12.47 lbs; Average Daily Dry Matter Intake % change from control [3, 9]: +1.0%; Average Daily Weight Gain [3, 9]: 2.39 lbs; Average Daily Weight Gain % change over control [3, 9]: +7.2%; Feed Efficiency [3, 9]: 5.22; Feed Efficiency % change from control [3, 9]: -6.1%; feed intake (in words) ([1]; actaplanin alone at 20 g./T.): slight decrease in feed intake; improved daily gains ([1]; actaplanin alone at 20 g./T.): 5.9%; Average Daily Dry Matter Intake ([1]; narasin 0, actaplanin 10 g./T.): 16.47 Pounds; Average Daily Weight Gain ([1]; narasin 0, actaplanin 10 g./T.): 2.54 Pounds; Average Feed Efficiency ([1]; narasin 0, actaplanin 10 g./T.): 6.47; Average Daily Dry Matter Intake ([1]; narasin 0, actaplanin 20 g./T.): 16.51 Pounds; Average Daily Weight Gain ([1]; narasin 0, actaplanin 20 g./T.): 2.66 Pounds; Average Feed Efficiency ([1]; narasin 0, actaplanin 20 g./T.): 6.19; Average Daily Dry Matter Intake ([1]; narasin 0, actaplanin 40 g./T.): 16.02 Pounds; Average Daily Weight Gain ([1]; narasin 0, actaplanin 40 g./T.): 2.59 Pounds; Average Feed Efficiency ([1]; narasin 0, actaplanin 40 g./T.): 6.18; Δ, change in feed efficiency of the treated group over the nontreated group (steers [4]; actaplanin 10 g./T. alone): 0.09; Δ, change in feed efficiency of the treated group over the nontreated group (steers [4]; actaplanin 20 g./T. alone): 0.28; Δ, change in feed efficiency of the treated group over the nontreated group (steers [4]; actaplanin 40 g./T. alone): 0.36; Feed efficiency (feed to gain ratio) (steers [4]; monensin 0, actaplanin 10 g./T.): 6.00; Feed efficiency (feed to gain ratio) (steers [4]; monensin 0, actaplanin 20 g./T.): 5.81; Feed efficiency (feed to gain ratio) (steers [4]; monensin 0, actaplanin 40 g./T.): 5.73; Propionate Production (rumen fluid; Monensin 0 PPM, Actaplanin 1 PPM): 13.0 ± 2.0 mM/24 hours; Propionate Production (rumen fluid; Monensin 0 PPM, Actaplanin 4 PPM): 19.9 ± 3.0 mM/24 hours; Combined Daily Gain Data, percentage response compared with untreated control (steers [5]; [10]): 5.5 percentage; Combined Feed Efficiency Data, percentage response compared with untreated control (steers [5]; [10]): 1.3 percentage; Combined Daily Gain Data, percentage response compared with untreated control (steers [5]; [11]): 6.6 percentage; Combined Feed Efficiency Data, percentage response compared with untreated control (steers [5]; [11]): 4.4 percentage; Combined Daily Gain Data, percentage response compared with untreated control (steers [5]; [12]): 6.3 percentage; Combined Feed Efficiency Data, percentage response compared with untreated control (steers [5]; [12]): 5.8 percentage

Question: For monensin, which “Average Daily Weight Gain” value (feeder calves) is on record?
Answer: 1.42 pounds

Question: And the “feed efficiency (pounds of feed consumption required for one pound of animal weight gain)” value (feeder calves)?
Answer: 12.05

Question: And the “dosage level of maximal improvement in feed efficiency” value (ruminants)?
Answer: about 33 ppm

Question: And the “dose level of maximal improvement in feed efficiency” value (ruminants)?
Answer: about 30 grams per ton of feed

Question: And the “Average Daily Dry Matter Intake” value [3, 13]?
Answer: 13.54 lbs

Question: And the “Average Daily Dry Matter Intake % change from control” value [3, 13]?
Answer: +9.6%

Question: What about the “Average Daily Weight Gain” value [3, 13] of the same compound?
Answer: 2.45 lbs

Question: And the “Average Daily Weight Gain % change over control” value [3, 13]?
Answer: +9.9%

Question: What about the “Feed Efficiency” value [3, 13] of the same compound?
Answer: 5.52

Question: And the “Feed Efficiency % change from control” value [3, 13]?
Answer: -0.3%

Question: And the “Average Daily Dry Matter Intake” value [3, 14]?
Answer: 12.94 lbs

Question: And the “Average Daily Dry Matter Intake % change from control” value [3, 14]?
Answer: +4.8%

Question: What about the “Average Daily Weight Gain” value [3, 14] of the same compound?
Answer: 2.39 lbs

Question: And the “Average Daily Weight Gain % change over control” value [3, 14]?
Answer: +7.2%

Question: And the “Feed Efficiency” value [3, 14]?
Answer: 5.42

Question: And the “Feed Efficiency % change from control” value [3, 14]?
Answer: -2.2%

Question: What about the “Average Daily Dry Matter Intake” value [6, 14] of the same compound?
Answer: 16.79 lbs

Question: What about the “Average Daily Weight Gain” value [6, 14] of the same compound?
Answer: 2.41 lbs

Question: What about the “Feed Efficiency” value [6, 14] of the same compound?
Answer: 7.01

Question: What about the “increase in feed efficiency versus control” value ([6]; monensin alone (30 g./T.)) of the same compound?
Answer: 6.4%

Question: And the “Δ, change in feed efficiency of the treated group over the nontreated group” value (steers [4]; monensin 10 g./T. alone)?
Answer: 0.14

Question: And the “Feed efficiency (feed to gain ratio)” value (steers [4]; monensin 10 g./T., actaplanin 0)?
Answer: 5.95

Question: And the “Δ, change in feed efficiency of the treated group over the nontreated group” value (steers [4]; monensin 30 g./T. alone)?
Answer: 0.39

Question: And the “Feed efficiency (feed to gain ratio)” value (steers [4]; monensin 30 g./T., actaplanin 0)?
Answer: 5.70

Question: What about the “Propionate Production” value (rumen fluid; Monensin 0.5 PPM, Actaplanin 0 PPM) of the same compound?
Answer: 14.2 ± 1.7 mM/24 hours

Question: And the “Propionate Production” value (rumen fluid; Monensin 3 PPM, Actaplanin 0 PPM)?
Answer: 18.4 ± 3.2 mM/24 hours
